The target of experiment [1] is T1, D(3) dopamine receptor (Homo sapiens, UniProt P35462). As to the kind of experiment: Antagonist activity at human […] expressed in HEK293T cells assessed as GalphaoA activation preincubated with compound in D-PBS for 3 hrs followed by coelenterazine addition for 5 mins once again compound addition for 10 mins by BRET assay. It counts as functional, cell-based.

Experiment [2] addresses T2, D(2) dopamine receptor (Homo sapiens, UniProt P14416). As to the kind of experiment: Displacement of [3H]-N-methylspiperone from human dopamine D2 receptor expressed in HEK293 cell membranes incubated for 60 mins by microbeta scintillation counting analysis. Further details: species or system Membrane. In general terms: Loss of bound radioactivity is the signal in a displacement assay; it reports binding, not function.

Experiment [3] deals with T1, D(3) dopamine receptor. Conditions: HEK293T, time 10.0 min.
Experiment [4] concerns the target Mu-type opioid receptor (Homo sapiens) (UniProt P35372). The note with it: HEK293T, time 10.0 min.
Experiment [5] concerns the target T1, D(3) dopamine receptor. As to the kind of experiment: Displacement of [3H]-N-methylspiperone from human dopamine D3 receptor expressed in HEK293 cell membranes incubated for 60 mins by microbeta scintillation counting analysis. On the set-up: species or system Membrane.
For a further experiment, the target named is T3, D(4) dopamine receptor (Homo sapiens, UniProt P21917).
T3 sequence (P21917 whole entry): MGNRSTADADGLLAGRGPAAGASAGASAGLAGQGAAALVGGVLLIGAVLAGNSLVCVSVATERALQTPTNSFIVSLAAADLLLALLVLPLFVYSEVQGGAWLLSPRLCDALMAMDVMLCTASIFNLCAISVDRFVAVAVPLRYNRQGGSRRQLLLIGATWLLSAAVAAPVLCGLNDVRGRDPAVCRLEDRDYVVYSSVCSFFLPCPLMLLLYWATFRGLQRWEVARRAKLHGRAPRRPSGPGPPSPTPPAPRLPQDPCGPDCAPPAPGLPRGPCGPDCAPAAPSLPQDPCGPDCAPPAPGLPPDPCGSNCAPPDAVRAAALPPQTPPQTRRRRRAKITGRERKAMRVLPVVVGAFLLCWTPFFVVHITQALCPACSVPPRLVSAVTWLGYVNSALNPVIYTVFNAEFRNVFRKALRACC
As to the kind of experiment: Displacement of [3H]-N-methylspiperone from human dopamine D4 receptor expressed in HEK293 cell membranes incubated for 60 mins by microbeta scintillation counting analysis. Further details: species or system Membrane.

In experiment [6] the target is Mu-type opioid receptor (Homo sapiens) (UniProt P35372). The note with it: HEK293T, time 10.0 min. The source holds these as a separate data set.
Sequence of Mu-type opioid receptor (Homo sapiens) (P35372 whole entry): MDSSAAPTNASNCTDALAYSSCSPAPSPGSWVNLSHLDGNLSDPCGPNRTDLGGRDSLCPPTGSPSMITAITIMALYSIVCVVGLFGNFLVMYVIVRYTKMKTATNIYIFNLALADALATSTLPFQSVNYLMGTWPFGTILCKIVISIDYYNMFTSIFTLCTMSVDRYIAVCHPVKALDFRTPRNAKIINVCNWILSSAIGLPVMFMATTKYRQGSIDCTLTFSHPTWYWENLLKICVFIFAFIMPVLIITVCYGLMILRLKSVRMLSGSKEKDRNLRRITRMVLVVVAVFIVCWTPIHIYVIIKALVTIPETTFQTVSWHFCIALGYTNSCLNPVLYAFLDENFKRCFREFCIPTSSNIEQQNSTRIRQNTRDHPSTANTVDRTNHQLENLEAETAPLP
Experiment [7] has the same target. Conditions: HEK293T, time 10.0 min. This is another data set of the same source.
The target in experiment [8] is T1, D(3) dopamine receptor. Nature of the experiment: Displacement of [3H]-(R)-(+)7-OH-DPAT from human dopamine D3 receptor expressed in HEK293 cell membranes incubated for 90 mins by microbeta scintillation counting analysis. Further details: species or system Membrane.
For experiment [9], the target named is T2, D(2) dopamine receptor. As to the kind of experiment: Displacement of [3H]-(R)-(+)7-OH-DPAT from human dopamine D2 receptor expressed in HEK293 cell membranes incubated for 90 mins by microbeta scintillation counting analysis. On the set-up: species or system Membrane.
Experiment [10] deals with T1, D(3) dopamine receptor. Nature of the experiment: Agonist activity at human dopamine D3 receptor expressed in HEK293T cells assessed as GalphaoA activation preincubated for 5 mins with coelenterazine followed by compound addition and measured after 10 mins by BRET assay. It is filed as functional, cell-based. Background: Bioluminescence resonance energy transfer reports proximity on the nanometre scale.

Active and inactive are the calls of the source. The calls are words filed in the database; no cut-off is given here. A value given as a limit tells only on which side of the number the result lay.

T2 sequence (P14416 whole entry): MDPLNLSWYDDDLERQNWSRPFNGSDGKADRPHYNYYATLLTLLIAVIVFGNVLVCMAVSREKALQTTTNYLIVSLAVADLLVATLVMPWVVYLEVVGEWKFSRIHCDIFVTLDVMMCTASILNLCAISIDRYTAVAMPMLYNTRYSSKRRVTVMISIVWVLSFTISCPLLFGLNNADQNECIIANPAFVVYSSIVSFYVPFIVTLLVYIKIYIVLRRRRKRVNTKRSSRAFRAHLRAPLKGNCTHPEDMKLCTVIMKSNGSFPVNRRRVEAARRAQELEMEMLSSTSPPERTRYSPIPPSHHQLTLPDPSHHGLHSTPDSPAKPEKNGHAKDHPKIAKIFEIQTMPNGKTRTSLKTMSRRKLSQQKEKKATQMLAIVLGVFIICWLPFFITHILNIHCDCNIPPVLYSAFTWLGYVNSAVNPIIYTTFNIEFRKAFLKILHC
T1 sequence (P35462 whole entry): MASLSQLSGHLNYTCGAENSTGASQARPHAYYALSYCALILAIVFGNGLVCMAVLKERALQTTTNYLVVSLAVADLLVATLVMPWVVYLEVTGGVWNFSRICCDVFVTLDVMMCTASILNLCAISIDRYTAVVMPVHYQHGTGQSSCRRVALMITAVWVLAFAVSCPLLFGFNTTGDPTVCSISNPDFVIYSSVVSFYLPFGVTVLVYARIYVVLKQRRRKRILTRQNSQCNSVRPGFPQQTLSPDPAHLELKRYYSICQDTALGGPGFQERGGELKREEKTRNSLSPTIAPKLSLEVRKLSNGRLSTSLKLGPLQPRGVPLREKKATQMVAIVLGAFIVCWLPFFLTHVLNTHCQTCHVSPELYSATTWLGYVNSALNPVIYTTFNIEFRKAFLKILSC

In the case of `CCOC(=O)/C=C1\[C@@H]2CCC[C@@]1(c1cccc(O)c1)CCN2CCCCNC(=O)c1cc2ccccc2[nH]1`, the pIC50 at D(3) dopamine receptor [1] is more than 5. In addition, the Ki was 2950 nM at D(2) dopamine receptor [2], 13700 nM at D(3) dopamine receptor [5] and 13800 nM on D(4) dopamine receptor. Also, the pEC50 result (on D(3) dopamine receptor [3]; in experiment [4]; in [6]; in experiment [7]) was “inactive” each time.

Take `CCOC(=O)/C=C1\[C@@H]2CCC[C@@]1(c1cccc(O)c1)CCN2C[C@@H]1C[C@H]1CCNC(=O)c1cc2ccccc2[nH]1` (relative stereo): the values for the Ki on D(2) dopamine receptor [2], at D(3) dopamine receptor [5] and on D(4) dopamine receptor were 4860 nM, 2300 nM and 17600 nM, respectively. Further, the pEC50 entry in experiment [4], in experiment [6] and in [7] was “inactive” in each case.

With `Oc1cccc([C@]23CCC[C@H](NCC2)[C@@H]3O)c1`, the Ki on D(2) dopamine receptor [2], at D(3) dopamine receptor [5], at D(4) dopamine receptor, on D(3) dopamine receptor [8] and on D(2) dopamine receptor [9] was more than 100000 nM in each case.

`CN(C)C(=O)C(CCNCCC(O)CN1CCN(c2cccc(Cl)c2Cl)CC1)(c1ccccc1)c1ccccc1` (stereo unspecified): the Ki at D(2) dopamine receptor [2] was 700 nM; at D(3) dopamine receptor [5], 572 nM; at D(4) dopamine receptor, 2780 nM; at D(3) dopamine receptor [8], 209 nM; on D(2) dopamine receptor [9], 167 nM.

Regarding `CCOC(=O)/C=C1\[C@@H]2CCC[C@@]1(c1cccc(O)c1)CCN2C[C@H]1C[C@@H]1CCNC(=O)c1cc2ccccc2[nH]1` (relative stereo), at D(3) dopamine receptor [10], the half-maximal effective concentration (EC50) was 1480 nM. The Ki on D(2) dopamine receptor [2] is 2860 nM; at D(3) dopamine receptor [5], 1290 nM; on D(4) dopamine receptor, 29200 nM. Besides, the pEC50 entry in experiment [4], in experiment [6] and in experiment [7] was “inactive” in each case.

As for `CCc1cccc(N2CCN(CCCCNCCC(C(=O)N(C)C)(c3ccccc3)c3ccccc3)CC2)c1Cl`, the Ki stood at 62.1 nM at D(2) dopamine receptor [2]; 17.8 nM on D(3) dopamine receptor [5]; 503 nM on D(4) dopamine receptor; 38.3 nM at D(3) dopamine receptor [8]; 44.2 nM at D(2) dopamine receptor [9].

On to `CCc1cccc(N2CCN(CC(O)CCNCCC(C(=O)N(C)C)(c3ccccc3)c3ccccc3)CC2)c1Cl` (stereo unspecified), for which the Ki at D(2) dopamine receptor [2] is 457 nM; on D(3) dopamine receptor [5], 123 nM; on D(4) dopamine receptor it was 1260 nM; at D(3) dopamine receptor [8], 123 nM; at D(2) dopamine receptor [9], 114 nM.

In general, pIC50 refers to the negative decadic logarithm of the IC50, by convention in mol/L. As usually defined, the Ki is the equilibrium dissociation constant of an inhibitor or competing ligand from its target. The low end stands for tighter binding, the high end for weaker binding. The EC50 is the midpoint of the concentration-response curve.

The values are drawn from ChEMBL document CHEMBL5046218, “Novel Dual-Target μ-Opioid Receptor and Dopamine D3 Receptor Ligands as Potential Nonaddictive Pharmacotherapeutics for Pain Management” (J Med Chem, 2021).
